Results as given in patent US20250313544A1, “INHIBITORS OF GLUTATHIONE S-TRANSFERASE ZETA 1 (GSTZ1) AND METHODS OF USE” (H. LEE MOFFITT CANCER CENTER AND RESEARCH INSTITUTE, INC., priority 2022, published 2025).

Tests used:
H1792 LUAD cells = assay: Chemical proteomics target profiling in live H1792 cells (label-free LC-MS/MS, comparison with control probe 22 and panel-wide cross-comparison); assay type: binding, human
Description: Cells were grown in 10 cm dishes to ˜90% confluence at the time of treatment. Cells were carefully washed twice with Dulbecco's phosphate buffered saline (DPBS) and replenished with fresh serum-free RPMI 1640 media containing indicated probes ([…]), competitors, or DMSO. Without competitors, cells were incubated with probes for 30 min at 37° C. and then exposed to 365 nm UV light for 15 min on ice. With competitors, cells were pre-treated with competitors for 30 min and photoactivated for 15 min. Probes were then added to cells for an additional 30 min incubation. For no UV experiments, cells were incubated for 15 min under ambient light. Cells were harvested in cold DPBS and pellets were washed with cold DPBS (2 X). Pellets were either directly processed or kept frozen at −80° C. until use. Cells pellets were lysed for 30 min in cold DPBS (100-300 uL) per culture dish supplemented with 1% NP-40, followed by sonication (5 pulses, 4 s on, 20 s off, output setting=4). Lysates were centrifuged at 20,817×g for 20 min, and supernatant (soluble proteome) was used for further processing. Protein concentrations were determined using Bradford assays.
Protein pellets were transferred to 5 mL microcentrifuge tubes and then resuspended in a freshly-prepared solution of proteomics-grade urea (320 μL, 6 M Urea in DPBS) containing 80 μL of 10% SDS and dissolved by sonication. To each solution, 4 mL DPBS was added (final conc: 0.2%, total volume) and incubated with pre-equilibrated NeutrAvidin agarose resin (100 μL 1:1 slurry, Pierce, Cat. 29201) for 2 hrs at ambient temperature on a rotator. The NeutrAvidin beads were collected by centrifugation (1,400×g, 2 min) and sequentially washed with 0.2% SDS in DPBS (2×2 mL), detergent-free DPBS (2×2 mL), and 50 mM ammonium bicarbonate (AMBIC, 2×2 mL). Beads were resuspended with 200 μL 50 mM AMBIC and incubated with TCEP 50 μL (100 mM in 50 mM AMBIC) for 30 min at 37° C. Iodoacetamide (50 μL of 200 mM in 50 mM AMBIC) was added and incubated for 30 min at ambient temperature. The beads were again washed with 2×1 mL 50 mM AMBIC and resuspended in 100 μL of fresh 50 mM AMBIC and treated with 2 μg of sequencing grade modified trypsin (Promega, #V5111) at 37° C. overnight. These samples were acidified with formic acid (final conc: 5%) and centrifuged (1,000×g, 2 min). The supernatant was collected and desalted through ZIPTIPs, and the desalted peptide mixture were dried in vacuum and reconstituted with HPLC buffer (2% acetonitrile, 0.1% formic acid) for LC-MS/MS analysis. Tryptic peptides of avidin were excluded from MS2 analysis to maximize detection of the protein targets (Table S7). Samples were analyzed using LC-MS/MS after being spiked with 50 fmol/uL PRTC standards (88320, Pierce Retention Time Calibration Mixture, Thermo Fisher, MA). A nanoflow ultra high performance liquid chromatograph and nanoelectrospray orbitrap mass spectrometer (RSLCnano and Q Exactive plus, Thermo) were used for LC-MS/MS. The sample was loaded onto a pre-column (C18 PepMap100, 2 cm length×100 μm ID packed with C18 reversed-phase resin, 5 μm particle size, 100 Å pore size) and washed for 8 minutes with aqueous 2% acetonitrile and 0.1% formic acid. Trapped peptides were eluted onto the analytical column, (C18 PepMap100, 25 cm length×75 μm ID, 2 μm particle size, 100 Å pore size, Thermo). A 120-minute gradient was programmed as: 95% solvent A (aqueous 2% acetonitrile+0.1% formic acid) for 8 minutes, solvent B (aqueous 90% acetonitrile+0.1% formic acid) from 5% to 38.5% in 90 minutes, then solvent B from 50% to 90% B in 7 minutes and held at 90% for 5 minutes, followed by solvent B from 90% to 5% in 1 minute and re-equilibration for 10 minutes using a flow rate of 300 nl/min. Spray voltage was 1900 V. Capillary temperature was 275° C. S lens RF level was set at 40. Top 16 tandem mass spectra were collected in a data-dependent manner. The resolution for MS and MS/MS were set at 70,000 and 17,500 respectively. […]

[1] = tested on: drug-refractory NSCLC cells (H1792, H520, HCC366); assay: Cell viability assay (CellTiter-Glo) across drug-refractory NSCLC cell lines; assay type: cell-based, human
Description: Cells were seeded in Corning 384-well black walled/clear bottom microplates with a density of 1,000 cells/well and treated with indicated drugs and concentrations following cell attachment for 24 h. After 72 h or 96 h, as indicated, cell viability was evaluated with CellTiter-Glo (Promega, Madison, WI) according to manufacturer's recommendations. An M5 Spectramax plate reader (Molecular devices) was used to read the plates with 500 ms integration. Data was processed and analyzed using Excel and GraphPad Prism 9.0.

C#CCCC1(CCC(=O)N2CCC(COc3nc4ccccc4nc3C)CC2)N=N1 [Probe 17, 3-(3-(but-3-yn-1-yl)-3H-diazirin-3-yl)-1-(4-(((3-methylquinoxalin-2-yl)oxy)methyl)piperidin-1-yl)propan-1-one]
prominent target protein predominantly enriched by the probe (H1792 LUAD cells; compared to control probe and probe panel): GSTZ1
selectivity of probe for GSTZ1 (H1792 LUAD cells; many other enriched putative targets vs. negative control probe alone): should not be considered a selective probe for GSTZ1
single agent activity (cell viability) [1]: moderate single agent activity
cellular activity of probes (cell viability) ([1]; single agent): displayed activity toward multiple tested cell lines
relative potency among active probes (cell viability) ([1]; single agent): more potent
